Data taken from BindingDB's records for doi:10.1021/jm9805384 (Agouron Pharmaceuticals, 1999).

Experiment: The EC50 was calculated as the concentration of drug that increased the percentage of formazan production in drug treated, virus infected cells to 50% of that produced by drug free uninfected cells on serotype 2.

Row | Compound | EC50
1 | CCOC(=O)/C=C/[C@H](CCC(N)=O)NC(=O)[C@H](Cc1ccccc1)NC(=O)[C@H](CC(C)C)NC(=O)OCc1ccccc1 [(E)-(S)-4-[(S)-2-((S)-2-Benzyloxycarbonylamino-4-methyl-pentanoylamino)-3-phenyl-propionylamino]-6-carbamoyl-hex-2-enoic acid ethyl ester] | 1600 nM

Experiment: Increased percentage of formazan production in drug treated virus infected cells to equal 50% control drug free uninfected cells on serotype 14

Row | Compound | EC50
2 | CCOC(=O)/C=C/[C@H](CN1CCNC1=O)NC(=O)[C@H](Cc1ccccc1)NC(=O)[C@H](CC(C)C)NC(=O)OCc1ccccc1 [(E)-(R)-4-[(S)-2-((S)-2-Benzyloxycarbonylamino-4-methyl-pentanoylamino)-3-phenyl-propionylamino]-5-(2-oxo-imidazolidin-1-yl)-pent-2-enoic acid ethyl ester] | 600 nM
3 | CCOC(=O)/C=C/[C@H](C[C@@H]1CCCNC1=O)NC(=O)[C@H](Cc1ccc(F)cc1)NC(=O)[C@@H](NC(=O)c1cc(C)on1)C(C)C [(E)-(S)-4-((S)-3-(4-Fluoro-phenyl)-2-{(S)-3-methyl-2-[(5-methyl-isoxazole-3-carbonyl)-amino]-butyrylamino}-propionylamino)-5-((S)-2-oxo-piperidin-3-yl)-pent-2-enoic acid ethyl ester] | 20 nM
4 | CCOC(=O)/C=C/[C@H](C[C@@H]1CCCNC1=O)NC(=O)[C@H](Cc1ccccc1)NC(=O)[C@H](CC(C)C)NC(=O)OCc1ccccc1 [(E)-(S)-4-[(S)-2-((S)-2-Benzyloxycarbonylamino-4-methyl-pentanoylamino)-3-phenyl-propionylamino]-5-((S)-2-oxo-piperidin-3-yl)-pent-2-enoic acid ethyl ester] | 30 nM
5 | CCOC(=O)/C=C/[C@H](CCC(=O)N(C)C)NC(=O)[C@H](Cc1ccccc1)NC(=O)[C@H](CC(C)C)NC(=O)OCc1ccccc1 [(E)-(S)-4-[(S)-2-((S)-2-Benzyloxycarbonylamino-4-methyl-pentanoylamino)-3-phenyl-propionylamino]-6-dimethylcarbamoyl-hex-2-enoic acid ethyl ester] | 4000 nM
6 | CCOC(=O)/C=C/[C@H](CCC(=O)NC)NC(=O)[C@H](Cc1ccccc1)NC(=O)[C@H](CC(C)C)NC(=O)OCc1ccccc1 [(E)-(S)-4-[(S)-2-((S)-2-Benzyloxycarbonylamino-4-methyl-pentanoylamino)-3-phenyl-propionylamino]-6-methylcarbamoyl-hex-2-enoic acid ethyl ester] | 5600 nM
7 | CCOC(=O)/C=C/[C@H](C[C@@H]1CCNC1=O)NC(=O)[C@H](Cc1ccc(F)cc1)NC(=O)[C@@H](NC(=O)c1cc(C)on1)C(C)(C)C [(E)-(S)-4-[(S)-2-{(S)-3,3-Dimethyl-2-[(5-methyl-isoxazole-3-carbonyl)-amino]-butyrylamino}-3-(4-fluoro-phenyl)-propionylamino]-5-((S)-2-oxo-pyrrolidin-3-yl)-pent-2-enoic acid ethyl ester] | 10 nM
8 | CCOC(=O)/C=C/[C@H](C[C@@H]1CCCNC1=O)NC(=O)[C@@H](CC(=O)[C@@H](NC(=O)c1cc(C)on1)C(C)C)Cc1ccc(F)cc1 [(E)-(S)-4-{(2R,5S)-2-(4-Fluoro-benzyl)-6-methyl-5-[(5-methyl-isoxazole-3-carbonyl)-amino]-4-oxo-heptanoylamino}-5-((S)-2-oxo-piperidin-3-yl)-pent-2-enoic acid ethyl ester] | 1 nM
9 | CCOC(=O)/C=C/[C@H](C[C@@H]1CCNC1=O)NC(=O)[C@H](Cc1ccc(F)cc1)NC(=O)[C@@H](NC(=O)c1cc(C)on1)C(C)C [AG7088 analogue 2a] | 10 nM
10 | CCOC(=O)/C=C/[C@H](C[C@@H]1CCNC1=O)NC(=O)[C@H](Cc1ccccc1)NC(=O)[C@@H](NC(=O)OCc1ccccc1)C(C)C [ethyl (2E,4S)-4-[(2S)-2-[(2S)-2-{[(benzyloxy)carbonyl]amino}-3-methylbutanamido]-3-phenylpropanamido]-5-[(3S)-2-oxopyrrolidin-3-yl]pent-2-enoate] | 30 nM
